Test system: 3,6-L-AHG transferase
Experiment: Quantitative analysis of 3,6-L-AHG with the final active fraction and NADP^+ (absorbance at 339 nm)
Format: biochemical, Saccharophagus degradans
Details: 50 minute reaction, relative concentrations 1, 0.5, 0.25, 0.1 and 0.05 (1 = 20 mg/mL), FIG. 1
Procedure: 7.5 μl of the final active fraction obtained in Preparation Example 2, 0.1 mM of NADP^+, and 50 mM of Tris-HCl (pH 8.0) are mixed to prepare 100 μl of a composition for quantitative analysis of 3,6-L-AHG.
An amount of 3,6-L-AHG is added to various 100 μl samples of the composition for quantitative analysis of 3,6-L-AHG obtained in Preparation Example 4 to achieve dilution factors for the 3,6-L-AHG of 1, 0.5, 0.25, 0.1 and 0.05 in terms of relative concentrations. A relative 3,6-L-AHG concentration of 1 corresponds to 20 mg/mL. Reaction is carried out for 50 minutes, and then absorbance is measured at 339 nm using a microplate spectrophotometer (Bio-Tek Instruments, Inc.) according to the End-point UV method.

O=C[C@@H](O)[C@@H]1OC[C@H](O)[C@H]1O [3,6-L-AHG, 3,6-anhydro-L-galactose]
amount of NADPH produced versus amount of 3,6-L-AHG in the sample: linearly related

From US8486654B2, “Compositions and methods for measuring 3,6-L-AHG transferase activity and 3,6-L-AHG” (Samsung Electronics Co., Ltd., priority 2010, dated 2013)
